Reference: the supplement of paper PMC4862054
Where “and” joins values, the source holds several entries; their conditions need not be identical. Equal entries are not always repeated.

Key:
Experiment in all cases: normalised viability (% of control), CellTiter-Blue; higher = more viable cells (about 100 = DMSO control)
Settings in all cases: incubation time: 72 h
[1] = test system: HDQ-P1
Procedure, shortened: (§1)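 Breast cancer cell lines in 20 µl suspension were seeded onto 384-well plates pre-loaded with compound dissolved in 5 µl medium, then incubated 72 h. CellTiter-Blue reagent (2.5 µl) was added for 2 h at 37 °C and fluorescence read at 560/590 nm. Each plate was normalised to vehicle (100) and a positive kill control (0), with Z'-factor quality control. The value is normalised viability at one listed concentration of the series.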

[2] = test system: MDA-MB-453
Procedure, shortened: as §1

[3] = test system: MDA-MB-436
Procedure, shortened: as §1

[4] = test system: BT-474
Procedure, shortened: as §1

[5] = test system: BT-549
Procedure, shortened: as §1

[6] = test system: CAL-51
Procedure, shortened: as §1

[7] = test system: CAL-120
Procedure, shortened: as §1

[8] = test system: MDA-MB-231
Procedure, shortened: as §1

[9] = test system: HCC1599
Procedure, shortened: as §1

[10] = test system: MFM-223
Procedure, shortened: as §1

[11] = test system: HCC1937
Procedure, shortened: as §1

[12] = test system: Hs578T
Procedure, shortened: as §1

[13] = test system: MDA-MB-468
Procedure, shortened: as §1

[14] = test system: DU-4475
Procedure, shortened: as §1

[15] = test system: HDQ-P1; remark: listed apart in the source
Procedure: (§2)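 DSRT, CellTiter-Blue viability, 72 h incubation. Signal is normalised to DMSO and benzethonium chloride controls. Value is the normalised response at dose 6.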

[16] = test system: MDA-MB-453; remark: listed apart in the source
Procedure: as §2

[17] = test system: CAL-51; remark: listed apart in the source
Procedure: as §2

[18] = test system: CAL-148
Procedure: as §2

[19] = test system: CAL-85-1
Procedure: as §2

[20] = test system: DU-4475; remark: listed apart in the source
Procedure: as §2

[21] = test system: HDQ-P1; remark: listed apart in the source
Procedure: (§3)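 DSRT, CellTiter-Blue viability, 72 h incubation. Signal is normalised to DMSO and benzethonium chloride controls. Value is the normalised response at dose 9.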

[22] = test system: MDA-MB-453; remark: listed apart in the source
Procedure: as §3

[23] = test system: CAL-51; remark: listed apart in the source
Procedure: as §3

[24] = test system: CAL-148; remark: listed apart in the source
Procedure: as §3

[25] = test system: CAL-85-1; remark: listed apart in the source
Procedure: as §3

[26] = test system: DU-4475; remark: listed apart in the source
Procedure: as §3

[27] = test system: HDQ-P1; remark: listed apart in the source
Procedure: (§4)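 DSRT, CellTiter-Blue viability, 72 h incubation. Signal is normalised to DMSO and benzethonium chloride controls. Value is the normalised response at dose 8.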

[28] = test system: MDA-MB-453; remark: listed apart in the source
Procedure: as §4

[29] = test system: CAL-51; remark: listed apart in the source
Procedure: as §4

[30] = test system: CAL-148; remark: listed apart in the source
Procedure: as §4

[31] = test system: CAL-85-1; remark: listed apart in the source
Procedure: as §4

[32] = test system: DU-4475; remark: listed apart in the source
Procedure: as §4

COc1ccc(-c2ccc3c(N4CCOC[C@@H]4C)nc(N4CCOC[C@@H]4C)nc3n2)cc1CO [AZD8055]
normalised viability ([1]; 3 nM): 83.4%
normalised viability ([2]; 3 nM): 94.6%
normalised viability ([3]; 10 nM): 98.3%
normalised viability ([4]; 10 nM): 108%
normalised viability ([5]; 10 nM): 92.5%
normalised viability ([6]; 3 nM): 88.2%
normalised viability ([7]; 10 nM): 91.4%
normalised viability ([8]; 10 nM): 80.7%
normalised viability ([9]; 10 nM): 89.3%
normalised viability ([10]; 10 nM): 71.9%
normalised viability ([11]; 10 nM): 77.2%
normalised viability ([12]; 10 nM): 91.1%
normalised viability ([13]; 10 nM): 98.2%
normalised viability ([14]; 3 nM): 95.8%
normalised viability ([15]; 300 nM): 26.9%
normalised viability ([16]; 300 nM): 15.7%
normalised viability ([17]; 300 nM): 16.9%
normalised viability ([18]; 300 nM): 10.4%
normalised viability ([19]; 300 nM): 28.8%
normalised viability ([20]; 300 nM): 29.8%
normalised viability ([21]; 10000 nM): 22.7%
normalised viability ([22]; 10000 nM): 12.2%
normalised viability ([23]; 10000 nM): 6.13%
normalised viability ([24]; 10000 nM): 3.64%
normalised viability ([25]; 10000 nM): 18.8%
normalised viability ([26]; 10000 nM): 8.6%
normalised viability ([27]; 3000 nM): 21.8%
normalised viability ([28]; 3000 nM): 14.6%
normalised viability ([29]; 3000 nM): 10.5%
normalised viability ([30]; 3000 nM): 5.57%
normalised viability ([31]; 3000 nM): 18.6%
normalised viability ([32]; 3000 nM): 14.1%

Cn1c(=O)n(-c2ccc(C(C)(C)C#N)cc2)c2c3cc(-c4cnc5ccccc5c4)ccc3ncc21 [NVP-BEZ235]
normalised viability ([1]; 0.3 nM): 110%
normalised viability ([2]; 0.3 nM): 110%
normalised viability ([3]; 1 nM): 126%
normalised viability ([4]; 1 nM): 105%
normalised viability ([5]; 1 nM): 101%
normalised viability ([6]; 0.3 nM): 105%
normalised viability ([7]; 1 nM): 89.8%
normalised viability ([8]; 1 nM): 97.4%
normalised viability ([9]; 1 nM): 104%
normalised viability ([10]; 1 nM): 99.1%
normalised viability ([11]; 1 nM): 128%
normalised viability ([12]; 1 nM): 100%
normalised viability ([13]; 1 nM): 102%
normalised viability ([14]; 0.3 nM): 125%
normalised viability ([15]; 30 nM): 39.8%
normalised viability ([16]; 30 nM): 21.9%
normalised viability ([17]; 30 nM): 29.5%
normalised viability ([18]; 30 nM): 32.4%
normalised viability ([19]; 30 nM): 47.8%
normalised viability ([20]; 30 nM): 65.2%
normalised viability ([21]; 1000 nM): 34%
normalised viability ([22]; 1000 nM): 13.8%
normalised viability ([23]; 1000 nM): 8.61%
normalised viability ([24]; 1000 nM): 0.2%
normalised viability ([25]; 1000 nM): 27.7%
normalised viability ([26]; 1000 nM): 5.52%
normalised viability ([27]; 300 nM): 26.5%
normalised viability ([28]; 300 nM): 12.6%
normalised viability ([29]; 300 nM): 12.4%
normalised viability ([30]; 300 nM): 10.7%
normalised viability ([31]; 300 nM): 29.5%
normalised viability ([32]; 300 nM): 15.8%

Cc1ccc(NC(=O)c2ccc(CN3CCN(C)CC3)cc2)cc1Nc1nccc(-c2cccnc2)n1 [Imatinib]
normalised viability ([1]; 3 nM): 132% and 110%
normalised viability ([2]; 3 nM): 129% and 110%
normalised viability ([3]; 10 nM): 117% and 111%
normalised viability ([4]; 10 nM): 108% and 112%
normalised viability ([5]; 10 nM): 87.7% and 100%
normalised viability ([6]; 3 nM): 111% and 108%
normalised viability ([7]; 10 nM): 81.6% and 90.2%
normalised viability ([8]; 10 nM): 81% and 98.2%
normalised viability ([9]; 10 nM): 105% and 120%
normalised viability ([10]; 10 nM): 95.9% and 112%
normalised viability ([11]; 10 nM): 89.5% and 92.4%
normalised viability ([12]; 10 nM): 106% and 119%
normalised viability ([13]; 10 nM): 95.9% and 102%
normalised viability ([14]; 3 nM): 92.2% and 97.2%
normalised viability ([15]; 300 nM): 74.9% and 72.5%
normalised viability ([16]; 300 nM): 86.5% and 88.3%
normalised viability ([17]; 300 nM): 106% and 102%
normalised viability ([18]; 300 nM): 83.5% and 104%
normalised viability ([19]; 300 nM): 101% and 94.4%
normalised viability ([20]; 300 nM): 97.8% and 89.4%
normalised viability ([22]; 10000 nM): 57.6% and 48.6%
normalised viability ([23]; 10000 nM): 110% and 93.9%
normalised viability ([24]; 10000 nM): 80.5% and 92.7%
normalised viability ([25]; 10000 nM): 87.7% and 85.9%
normalised viability ([26]; 10000 nM): 121% and 110%
normalised viability ([27]; 3000 nM): 118% and 119%
normalised viability ([28]; 3000 nM): 86.2% and 83.6%
normalised viability ([29]; 3000 nM): 108% and 98.6%
normalised viability ([30]; 3000 nM): 102% and 90.9%
normalised viability ([31]; 3000 nM): 96.1% and 95.3%
normalised viability ([32]; 3000 nM): 112% and 116%

CO[C@H]1C[C@@H]2CC[C@@H](C)[C@@](O)(O2)C(=O)C(=O)N2CCCC[C@H]2C(=O)O[C@H]([C@H](C)C[C@@H]2CC[C@@H](OCCO)[C@H](OC)C2)CC(=O)[C@H](C)/C=C(\C)[C@@H](O)[C@@H](OC)C(=O)[C@H](C)C[C@H](C)/C=C/C=C/C=C/1C [Everolimus]
normalised viability ([1]; 0.3 nM): 84.7% and 79.8%
normalised viability ([2]; 0.3 nM): 71.9% and 70%
normalised viability ([3]; 1 nM): 87.7% and 75.2%
normalised viability ([4]; 1 nM): 76.6% and 65.5%
normalised viability ([5]; 1 nM): 64.4% and 54.3%
normalised viability ([6]; 0.3 nM): 89.6% and 89.8%
normalised viability ([7]; 1 nM): 59.3% and 51.9%
normalised viability ([9]; 1 nM): 107% and 111%
normalised viability ([10]; 1 nM): 55.5% and 51.7%
normalised viability ([11]; 1 nM): 52.2% and 56.6%
normalised viability ([12]; 1 nM): 61% and 59.5%
normalised viability ([13]; 1 nM): 72% and 74.4%
normalised viability ([14]; 0.3 nM): 86.3% and 104%
normalised viability ([15]; 30 nM): 38.7% and 49%
normalised viability ([16]; 30 nM): 30.5% and 29.2%
normalised viability ([17]; 30 nM): 39.1% and 41.5%
normalised viability ([18]; 30 nM): 42.9% and 41.6%
normalised viability ([19]; 30 nM): 61.6% and 56.1%
normalised viability ([20]; 30 nM): 50.6% and 60.2%
normalised viability ([21]; 1000 nM): 76.8% and 59.4%
normalised viability ([22]; 1000 nM): 25.4% and 15.4%
normalised viability ([23]; 1000 nM): 37% and 28.9%
normalised viability ([24]; 1000 nM): 38% and 16.3%
normalised viability ([25]; 1000 nM): 62% and 43%
normalised viability ([26]; 1000 nM): 61.8% and 39.1%
normalised viability ([27]; 300 nM): 72.9% and 72.6%
normalised viability ([28]; 300 nM): 28.7% and 29.6%
normalised viability ([29]; 300 nM): 40.4% and 43.4%
normalised viability ([30]; 300 nM): 39% and 37.2%
normalised viability ([31]; 300 nM): 57% and 52.9%
normalised viability ([32]; 300 nM): 60.9% and 62.6%
